# Reference: patent publication US8853246B2 (Dow AgroSciences LLC, priority 2009, dated 2014)
# Like-named read-outs stand apart in the source and are kept apart here.
# How the values were obtained:
# [1] = tested on: Sweetpotato Whitefly-Crawler (Bemisia Tabaci); assay: Insecticidal test for sweetpotato whitefly-crawler in foliar spray assay (col. BEMITA); format: in vivo; conditions: for pest or weed control at 200 ppm: Bemisia tabaci, read-out: BEMITA 200 ppm (Corrected % Control, rating)
# Method in brief: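 Cotton plants (one 3-5 cm true leaf) infested with whitefly eggs (100-300/plant), held 5-6 days at 82° F, 50% RH until crawlers developed. Sprayed to runoff at 200 ppm (acetone stock diluted in 0.025% Tween 20), four plants per treatment. Live nymphs counted after 8-9 days; % control by Abbott's correction versus solvent check.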
# [2] = tested on: Green Peach Aphid (Myzus Persicae); assay: Insecticidal test for green peach aphid in foliar spray assay (col. MYZUPE); format: in vivo; conditions: for pest or weed control at 200 ppm: Myzus persicae, 72 h, read-out: MYZUPE 200 ppm (Corrected % Control, rating)
# Method in brief: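 Cabbage seedlings with 2-3 true leaves, infested with 20-50 wingless adult and nymph aphids one day earlier, sprayed to runoff at 200 ppm (acetone/methanol stock diluted in 0.025% Tween 20), four pots per treatment. After 3 days at ~25 °C, 40% RH, live aphids counted; corrected % control versus solvent-sprayed plants.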
Structure (SMILES),pest or weed control at 200 ppm ([1]; Abbott's correction formula) [%],pest or weed control at 200 ppm ([2]; Abbott's correction formula) [%],pest or weed control at 200 ppm ([1]; sweetpotato whitefly-crawler) [%],pest or weed control at 200 ppm ([2]; green peach aphid) [%],also measured
CCN(C(=O)CC(C)SC)c1sc(-c2cccnc2)nc1Br (stereo not drawn) [Compound 480],80 to 100,80 to 100,–,–,–
CCN(C(=O)CC(C)(C)SC)c1sc(-c2cncc(F)c2)nc1Cl [Compound 447],80 to 100,80 to 100,–,–,–
CSCCC(=O)N(C)c1sc(-c2cncnc2)nc1C [Compound 51],–,–,80 to 100,80 to 100,–
CCN(C(=O)CCS(C)(=O)=O)c1sc(-c2cncc(F)c2)nc1C [Compound 257],–,–,–,–,"BEMITA 200 ppm (Corrected % Control, rating) ([1]; sweetpotato whitefly-crawler): A (80-100); MYZUPE 200 ppm (Corrected % Control, rating) ([2]; green peach aphid): A (80-100)"
CSC(C)CC(=O)N(C)c1sc(-c2cccnc2)nc1Br (stereo not drawn) [Compound 499],< 80,80 to 100,–,–,–
CC(CC(=O)N(C)c1sc(-c2cccnc2)nc1Br)[S+](C)[O-] (stereo not drawn) [Compound 504],80 to 100,80 to 100,–,–,–
"CSCCOC(=O)N(C)c1cnc(-c2cncc(F)c2)s1 [Compound 75, [2-(5-fluoropyridin-3-yl)-thiazol-5-yl]-methyl-carbamic acid 2-methylsulfanyl-ethyl Ester]",–,–,< 80,80 to 100,–
Cc1nc(-c2cccnc2)sc1N(CC1CC1(F)F)C(=O)OC(C)(C)C (stereo not drawn) [Compound 461],< 80,80 to 100,–,–,–
CCN(C(=O)C(C)c1ccc(Cl)cc1)c1sc(-c2cccnc2)nc1Cl (stereo not drawn) [Compound 540],80 to 100,80 to 100,–,–,–
CSCC(C)C(=O)N(C)c1sc(-c2cccnc2)nc1C(F)(F)F (stereo not drawn) [Compound 44],–,–,80 to 100,80 to 100,–
CSCC(C)C(=O)N(C(=O)C(C)CSC)c1sc(-c2cccnc2)nc1C (stereo not drawn) [Compound 173],–,–,80 to 100,80 to 100,–
"CC/N=C(\SCC)N(C)c1sc(-c2cccnc2)nc1C [Compound 471, 2,3-diethyl-1-methyl-1-(4-methyl-2-pyridin-3-yl-thiazol-5-yl)-isothiourea]",< 80,80 to 100,–,–,–
CSCCC(=O)N(C)c1sc(-c2cncc(F)c2)nc1C [Compound 38],–,–,80 to 100,80 to 100,–
CCO[C@@H]1[C@@H](OC)[C@H](C)OC(OC(=O)Nc2sc(-c3cccnc3)nc2C)[C@@H]1OC (mixture of isomers) [Compound 182],–,–,< 80,80 to 100,–
CC(=O)c1ccc(C(=O)N(C)c2sc(-c3cccnc3)nc2Cl)s1 [Compound 351],–,–,< 80,< 80,–
CCN(C(=O)c1snnc1C)c1sc(-c2cccnc2)nc1Cl [Compound 556],< 80,80 to 100,–,–,–
CN(C(=O)c1ccc(=O)n(C)n1)c1sc(-c2cccnc2)nc1Cl [Compound 405],–,–,–,–,"BEMITA 200 ppm (Corrected % Control, rating) ([1]; sweetpotato whitefly-crawler): B (Less than 80); MYZUPE 200 ppm (Corrected % Control, rating) ([2]; green peach aphid): A (80-100)"
CCN(C(=O)OC(C)(C)C)c1sc(-c2cncc(F)c2)nc1Cl [Compound 267],–,–,80 to 100,80 to 100,–
CSCC(Cc1ccccc1)C(=O)Nc1sc(-c2cccnc2)nc1C (stereo not drawn) [Compound 329],–,–,< 80,< 80,–
CCc1nc(-c2cccnc2)sc1N(C)C(=O)C(C)C [Compound 48],–,–,80 to 100,80 to 100,–
CN(C(=O)c1ccc([S+](C)[O-])cc1)c1sc(-c2cccnc2)nc1Cl (stereo not drawn) [Compound 403],–,–,–,–,"BEMITA 200 ppm (Corrected % Control, rating) ([1]; sweetpotato whitefly-crawler): B (Less than 80); MYZUPE 200 ppm (Corrected % Control, rating) ([2]; green peach aphid): A (80-100)"

Structure (SMILES),pest or weed control at 200 ppm ([1]; Abbott's correction formula) [%],pest or weed control at 200 ppm ([2]; Abbott's correction formula) [%],pest or weed control at 200 ppm ([1]; sweetpotato whitefly-crawler) [%],pest or weed control at 200 ppm ([2]; green peach aphid) [%],also measured
CSCC(C)C(=O)N(C)c1sc(-c2cncc(F)c2)nc1Br (stereo not drawn) [Compound 354],–,–,80 to 100,80 to 100,–
CSCC(C)C(=O)N(CC1CC1)c1sc(-c2cccnc2)nc1C (stereo not drawn) [Compound 468],< 80,80 to 100,–,–,–
CSCC(C)C(=O)N(C)c1sc(-c2cncnc2)nc1C (stereo not drawn) [Compound 52],–,–,80 to 100,< 80,–
Cc1nc(-c2cccnc2)sc1N(C)C(=O)C(CCCCNC(=O)OCc1ccccc1)NC(=O)OC(C)(C)C (stereo not drawn) [Compound 291],–,–,< 80,< 80,–
CCSCCC(=O)N(CC)c1sc(-c2cncc(F)c2)nc1C [Compound 319],–,–,80 to 100,80 to 100,–
CCCN(C(=O)OC(C)(C)C)c1sc(-c2cccnc2)nc1C [Compound 284],–,–,80 to 100,80 to 100,–
CSCCC(=O)N(C)c1sc(-c2cncnc2)nc1Cl [Compound 509],80 to 100,80 to 100,–,–,–
CCN(C(=O)c1scnc1C)c1sc(-c2cccnc2)nc1Cl [Compound 555],< 80,80 to 100,–,–,–
Cc1cc(C(=O)Nc2sc(-c3cccnc3)nc2C)ccn1 [Compound 406],–,–,< 80,80 to 100,–
CCN(C(=O)CCS(C)(=O)=O)c1sc(-c2cccnc2)nc1C [Compound 239],–,–,–,–,"BEMITA 200 ppm (Corrected % Control, rating) ([1]; sweetpotato whitefly-crawler): A (80-100); MYZUPE 200 ppm (Corrected % Control, rating) ([2]; green peach aphid): A (80-100)"
CCN(C(=O)c1ccco1)c1sc(-c2cccnc2)nc1Cl [Compound 576],< 80,80 to 100,–,–,–
"CCCC(C)C(=O)N1CCCC(C(=O)N(C)c2sc(-c3cncc(F)c3)nc2C)C1 (stereo not drawn) [Compound 582, 1-(2-methyl-pentanoyl)-piperidine-3-carboxylic acid [2-(5-fluoro-pyridin-3-yl)-4-methyl-thiazol-5-yl]-methyl-amide]",80 to 100,80 to 100,–,–,–
CSCC(C)(C)C(=O)Nc1sc(-c2cccnc2)nc1C [Compound 57],–,–,80 to 100,80 to 100,–
CCc1nc(-c2cccnc2)sc1N(C)C(=O)C(C)(C)CSC [Compound 49],–,–,80 to 100,< 80,–
Cc1nc(-c2cccnc2)sc1N(C)C(=O)C(C)NC(=O)OC(C)(C)C (stereo not drawn) [Compound 282],–,–,80 to 100,80 to 100,–
CN(C(=O)CC[S+](C)[O-])c1sc(-c2cccnc2)nc1Br (stereo not drawn) [Compound 506],< 80,80 to 100,–,–,–
CN(C(=O)CN(C)S(=O)(=O)/C=C/c1ccccc1)c1sc(-c2cccnc2)nc1Cl [Compound 437],< 80,< 80,–,–,–
CC(=O)N1CCCC(C(=O)N(C)c2sc(-c3cccnc3)nc2C)C1 (stereo not drawn) [Compound 412],–,–,80 to 100,80 to 100,–
"CN(C(=O)OC(C)(C)C)c1cnc(-c2ccc(Cl)nc2)s1 [Compound 16, [2-(6-chloropyridin-3-yl)-thiazol-5-yl]-methyl-carbamic acid tert-butyl ester]",–,–,80 to 100,< 80,–
CCN(C(=O)C(C)(C)C[S+](C)[O-])c1sc(-c2cncc(F)c2)nc1C (stereo not drawn) [Compound 260],–,–,80 to 100,80 to 100,–
CN(C(=O)CCS(C)(=O)=O)c1sc(-c2cccnc2)nc1Cl [Compound 246],–,–,80 to 100,80 to 100,–
